# Assay results taken from PubChem BioAssay AID504479 (NMMLSC, 2011).
# Activity calls are given as the source filed them.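 How the source made its calls: active means GFP ratio vs DMSO below 0.65 in a strain, using the primary screen cutoff set for that strain's protein target; inactive means the rest.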
# Experiments:
# Assay in all cases: TORC1 pathway position of GFP reporter effects – S. cerevisiae, TORC1 bypass vs wild-type strains, mechanism study for yeast TOR pathway modulator project (AID 504479)
# Conditions in all cases: fluorescence ratio vs DMSO, at 10 µM
# [1] = tested on: YCL025C
# [2] = tested on: YBR084C-A
# [3] = tested on: YKL103C
# [4] = tested on: YNL142W
# [5] = tested on: BY4741
# [6] = tested on: YCR005C
# [7] = AGP1-GFP in TORC1 bypass strain, stronger effect = higher value
# [8] = RPL19A-GFP in TORC1 bypass strain, stronger effect = lower value
# [9] = LAP4-GFP in TORC1 bypass strain, stronger effect = higher value
# [10] = MEP2-GFP in TORC1 bypass strain, stronger effect = higher value
# [11] = CIT2-GFP in TORC1 bypass strain, stronger effect = higher value
smiles,measurement,setting,value
COc1ccc(C(=O)NNC(=S)NC(=O)/C=C/c2cccs2)cc1,GFP ratio vs DMSO,[1]; [7],0.916
same,GFP ratio vs DMSO,[1],1.18 (inactive)
same,GFP ratio vs DMSO,[2]; [8],1.04
same,GFP ratio vs DMSO,[2],1.27 (inactive)
same,GFP ratio vs DMSO,[3]; [9],1.16
same,GFP ratio vs DMSO,[3],1.72
same,GFP ratio vs DMSO,[4]; [10],1
same,GFP ratio vs DMSO,[4],1.15 (inactive)
same,GFP ratio vs DMSO,[5],1.24 (inactive)
same,GFP ratio vs DMSO,[6]; [11],0.971
same,GFP ratio vs DMSO,[6],1.2 (inactive)
Cc1ccc(C2=NOC(=O)/C2=C\c2ccc(C)o2)cc1,GFP ratio vs DMSO,[1]; [7],0.701
same,GFP ratio vs DMSO,[1],0.907 (inactive)
same,GFP ratio vs DMSO,[2]; [8],0.949
same,GFP ratio vs DMSO,[2],1.01 (inactive)
same,GFP ratio vs DMSO,[3]; [9],0.971
same,GFP ratio vs DMSO,[3],1.52
same,GFP ratio vs DMSO,[4]; [10],1.49
same,GFP ratio vs DMSO,[4],1.24 (inactive)
same,GFP ratio vs DMSO,[5],1.74 (inactive)
same,GFP ratio vs DMSO,[6]; [11],1.1
same,GFP ratio vs DMSO,[6],1.24 (inactive)
CC(=O)c1ccc(N2CCN(C(=O)c3ccc(Br)cc3)CC2)c(F)c1,GFP ratio vs DMSO,[1]; [7],1.42
same,GFP ratio vs DMSO,[1],1.17 (inactive)
same,GFP ratio vs DMSO,[2]; [8],1.33
same,GFP ratio vs DMSO,[2],1.28 (inactive)
same,GFP ratio vs DMSO,[3]; [9],1.27
same,GFP ratio vs DMSO,[3],1.94
same,GFP ratio vs DMSO,[4]; [10],1.25
same,GFP ratio vs DMSO,[4],1.3 (inactive)
same,GFP ratio vs DMSO,[5],1.18 (inactive)
same,GFP ratio vs DMSO,[6]; [11],1.12
same,GFP ratio vs DMSO,[6],1.85
CO[C@H]1C[C@@H]2CC[C@@H](C)[C@@](O)(O2)C(=O)C(=O)N2CCCC[C@H]2C(=O)O[C@H]([C@H](C)C[C@@H]2CC[C@@H](O)[C@H](OC)C2)CC(=O)[C@H](C)/C=C(\C)[C@@H](O)[C@@H](OC)C(=O)[C@H](C)C[C@H](C)/C=C/C=C/C=C/1C,GFP ratio vs DMSO,[1]; [7],1.51
same,GFP ratio vs DMSO,[1],2.28
same,GFP ratio vs DMSO,[2]; [8],0.67
same,GFP ratio vs DMSO,[2],0.597
same,GFP ratio vs DMSO,[3]; [9],1.17
same,GFP ratio vs DMSO,[3],2.52
same,GFP ratio vs DMSO,[4]; [10],1.01
same,GFP ratio vs DMSO,[4],12.5
same,GFP ratio vs DMSO,[5],1.1 (inactive)
same,GFP ratio vs DMSO,[6]; [11],2.4
same,GFP ratio vs DMSO,[6],3.29
O=[N+]([O-])c1ccc(O)c2ncccc12,GFP ratio vs DMSO,[1]; [7],0.99
same,GFP ratio vs DMSO,[1],1.14 (inactive)
same,GFP ratio vs DMSO,[2]; [8],1.18
same,GFP ratio vs DMSO,[2],1.23 (inactive)
same,GFP ratio vs DMSO,[3]; [9],1.88
same,GFP ratio vs DMSO,[3],3.01
same,GFP ratio vs DMSO,[4]; [10],1.06
same,GFP ratio vs DMSO,[4],1.21 (inactive)
same,GFP ratio vs DMSO,[5],1.4 (inactive)
same,GFP ratio vs DMSO,[6]; [11],0.748
same,GFP ratio vs DMSO,[6],1.27 (inactive)
O=C1ON=C(c2ccccc2)/C1=C/c1ccco1,GFP ratio vs DMSO,[1]; [7],0.65
same,GFP ratio vs DMSO,[1],0.853 (inactive)
same,GFP ratio vs DMSO,[2]; [8],0.972
same,GFP ratio vs DMSO,[2],0.965 (inactive)
same,GFP ratio vs DMSO,[3]; [9],1.17
same,GFP ratio vs DMSO,[3],1.64
same,GFP ratio vs DMSO,[4]; [10],1.01
same,GFP ratio vs DMSO,[4],1.03 (inactive)
same,GFP ratio vs DMSO,[5],0.912 (inactive)
same,GFP ratio vs DMSO,[6]; [11],0.825
same,GFP ratio vs DMSO,[6],1.34 (inactive)
O=S(=O)(CCN(CCS(=O)(=O)C(F)(F)F)CC1CCCO1)C(F)(F)F (stereo not drawn),GFP ratio vs DMSO,[1]; [7],0.817
same,GFP ratio vs DMSO,[1],0.958 (inactive)
same,GFP ratio vs DMSO,[2]; [8],1.07
same,GFP ratio vs DMSO,[2],1.05 (inactive)
same,GFP ratio vs DMSO,[3]; [9],1.2
same,GFP ratio vs DMSO,[3],1.85
same,GFP ratio vs DMSO,[4]; [10],0.942
same,GFP ratio vs DMSO,[4],0.986 (inactive)
same,GFP ratio vs DMSO,[5],0.958 (inactive)
same,GFP ratio vs DMSO,[6]; [11],1.29
same,GFP ratio vs DMSO,[6],1.41 (inactive)
Cn1ncc(S(=O)(=O)Cc2ccccc2)c(Cl)c1=O,GFP ratio vs DMSO,[1]; [7],0.801
same,GFP ratio vs DMSO,[1],0.984 (inactive)
same,GFP ratio vs DMSO,[2]; [8],0.786
same,GFP ratio vs DMSO,[2],0.76 (inactive)
same,GFP ratio vs DMSO,[3]; [9],1.56
same,GFP ratio vs DMSO,[3],1.63
same,GFP ratio vs DMSO,[4]; [10],0.971
same,GFP ratio vs DMSO,[4],1.46 (inactive)
same,GFP ratio vs DMSO,[5],1.31 (inactive)
same,GFP ratio vs DMSO,[6]; [11],1.02
same,GFP ratio vs DMSO,[6],1.15 (inactive)
